Data: publication PMC11822212, “High-throughput screening identifies Aurora kinase B as a critical therapeutic target for Merkel cell carcinoma” (Nature Communications, 2025)

Tests used:
HEK293T cells = test: qHTS cell viability (CellTiter-Glo, 72 h; primary screen), control cell line; assay type: cell-based, human
MCC26 cells (VN-MCC) = test: qHTS cell viability (CellTiter-Glo, 72 h; primary and follow-up small molecule screen); assay type: cell-based, human
MCC13 cells (VN-MCC) = test: as above; assay type: cell-based, human
[1] = system: VP-MCC cell lines (WAGA, MKL-1, MKL-2); test: qHTS cell viability, VP-MCC cell lines as a group (mean AUC, VP.MCC.avg); assay type: cell-based, human; conditions: for VP-MCC_Avg_AUC: mean AUC of VP-MCC cell lines
[2] = system: six MCC cell lines and four control cell lines; test: qHTS cell viability, all 10 cell lines screened; assay type: cell-based
MKL-1 cells (VP-MCC) = test: qHTS cell viability (CellTiter-Glo, 72 h; primary and follow-up small molecule screen); assay type: cell-based, human
CRL-7250 cells = test: qHTS cell viability (CellTiter-Glo, 72 h; primary screen), control cell line; assay type: cell-based
UISO cells (VN-MCC) = test: qHTS cell viability (CellTiter-Glo, 72 h; primary and follow-up small molecule screen); assay type: cell-based, human
HACAT cells = test: qHTS cell viability (CellTiter-Glo, 72 h; primary screen), control cell line; assay type: cell-based, human
[3] = system: control cell lines (HACAT, HEK293T, CRL-7250, NIH-3T3); test: qHTS cell viability, control cell lines as a group (mean AUC, Control.avg); assay type: cell-based; conditions: mean AUC of control cell lines
[4] = system: VN-MCC cell lines (MCC13, MCC26, UISO); test: qHTS cell viability, VN-MCC cell lines as a group (mean AUC, VN.MCC.avg); assay type: cell-based, human; conditions: for VN-MCC_Avg_AUC: mean AUC of VN-MCC cell lines
MKL-2 cells (VP-MCC) = test: qHTS cell viability (CellTiter-Glo, 72 h; primary and follow-up small molecule screen); assay type: cell-based, human
[5] = system: MCC cell lines (WAGA, MKL-1, MKL-2, MCC13, MCC26, UISO); test: qHTS cell viability, all six MCC cell lines as a group (mean AUC, MCC.avg); assay type: cell-based, human; conditions: mean AUC of six MCC cell lines
NIH-3T3 cells = test: qHTS cell viability (CellTiter-Glo, 72 h; primary screen), control cell line; assay type: cell-based, mouse
WAGA cells (VP-MCC) = test: qHTS cell viability (CellTiter-Glo, 72 h; primary and follow-up small molecule screen); assay type: cell-based, human
[6] = MIPE library, 11-point DRC, control cell line, sheet S2E
[7] = MIPE library, 11-point DRC, sheet S2E
[8] = MIPE library, Control AUC minus VP-MCC AUC (therapeutic window), sheet S2E
[9] = MIPE library, Control AUC minus MCC AUC (therapeutic window), sheet S2E
[10] = MIPE library, Control AUC minus VN-MCC AUC (therapeutic window), sheet S2E

Structure (SMILES): CC#C[C@]1(O)CC[C@H]2[C@@H]3CCC4=CC(=O)CCC4=C3[C@@H](c3ccc(N(C)C)cc3)C[C@@]21C [Mifepristone]
- HEK293T_AUC (HEK293T cells; [6]): 403.35
- MCC26_AUC (MCC26 cells (VN-MCC); [7]): 459.158
- Area under the dose-response curve (AUC) MCC26 Replicate 1 (MCC26 cells (VN-MCC); follow-up screen, MCC26, replicate 1): 467.8
- Area under the dose-response curve (AUC) MCC26 Replicate 2 (MCC26 cells (VN-MCC); follow-up screen, MCC26, replicate 2): 425.4
- Area under the dose-response curve (AUC) MCC26 Replicate 3 (MCC26 cells (VN-MCC); follow-up screen, MCC26, replicate 3): 483.6
- MCC13_AUC (MCC13 cells (VN-MCC); [7]): 450.219
- Area under the dose-response curve (AUC) MCC13 Replicate 1 (MCC13 cells (VN-MCC); follow-up screen, MCC13, replicate 1): 516.1
- Area under the dose-response curve (AUC) MCC13 Replicate 2 (MCC13 cells (VN-MCC); follow-up screen, MCC13, replicate 2): 505.4
- Area under the dose-response curve (AUC) MCC13 Replicate 3 (MCC13 cells (VN-MCC); follow-up screen, MCC13, replicate 3): 486.2
- Control-VP-MCC [1, 8]: 171.607
- VP-MCC_Avg_AUC ([1]; MIPE library, sheet S2E): 277.18
- Control-MCC [2, 9]: 97.3285
- MKL1_AUC (MKL-1 cells (VP-MCC); [7]): 274.173
- Area under the dose-response curve (AUC) MKL-1 Replicate 1 (MKL-1 cells (VP-MCC); follow-up screen, MKL-1, replicate 1): 491.0
- Area under the dose-response curve (AUC) MKL-1 Replicate 2 (MKL-1 cells (VP-MCC); follow-up screen, MKL-1, replicate 2): 482.0
- Area under the dose-response curve (AUC) MKL-1 Replicate 3 (MKL-1 cells (VP-MCC); follow-up screen, MKL-1, replicate 3): 520.5
- CRL7250_AUC (CRL-7250 cells; [6]): 445.154
- UISO_AUC (UISO cells (VN-MCC); [7]): 367.837
- Area under the dose-response curve (AUC) UISO Replicate 1 (UISO cells (VN-MCC); follow-up screen, UISO, replicate 1): 472.5
- Area under the dose-response curve (AUC) UISO Replicate 2 (UISO cells (VN-MCC); follow-up screen, UISO, replicate 2): 481.5
- Area under the dose-response curve (AUC) UISO Replicate 3 (UISO cells (VN-MCC); follow-up screen, UISO, replicate 3): 472.0
- HACAT_AUC (HACAT cells; [6]): 471.301
- Control_Avg_AUC ([3]; MIPE library, sheet S2E): 448.787
- Control-VN-MCC [4, 10]: 23.0495
- VN-MCC_Avg_AUC ([4]; MIPE library, sheet S2E): 425.738
- MKL2_AUC (MKL-2 cells (VP-MCC); [7]): 266.162
- Area under the dose-response curve (AUC) MKL-2 Replicate 1 (MKL-2 cells (VP-MCC); follow-up screen, MKL-2, replicate 1): 494.5
- Area under the dose-response curve (AUC) MKL-2 Replicate 2 (MKL-2 cells (VP-MCC); follow-up screen, MKL-2, replicate 2): 503.2
- Area under the dose-response curve (AUC) MKL-2 Replicate 3 (MKL-2 cells (VP-MCC); follow-up screen, MKL-2, replicate 3): 499.4
- MCC_Avg_AUC ([5]; MIPE library, sheet S2E): 351.459
- NIH3T3_AUC (NIH-3T3 cells; [6]): 475.344
- WAGA_AUC (WAGA cells (VP-MCC); [7]): 291.204
- Area under the dose-response curve (AUC) WAGA Replicate 1 (WAGA cells (VP-MCC); follow-up screen, WAGA, replicate 1): 532.2
- Area under the dose-response curve (AUC) WAGA Replicate 2 (WAGA cells (VP-MCC); follow-up screen, WAGA, replicate 2): 542.6
- Area under the dose-response curve (AUC) WAGA Replicate 3 (WAGA cells (VP-MCC); follow-up screen, WAGA, replicate 3): 501.4

Structure (SMILES): Clc1ccc(C(Cn2ccnc2)OCc2ccsc2Cl)c(Cl)c1 (stereo not drawn) [Tioconazole]
- HEK293T_AUC (HEK293T cells; NPC library, qHTS dose-response AUC, HEK293T control): 456.797
- MCC26_AUC (MCC26 cells (VN-MCC); NPC library, qHTS dose-response AUC, MCC26): 501.8
- MCC13_AUC (MCC13 cells (VN-MCC); NPC library, qHTS dose-response AUC, MCC13): 438.775
- VP-MCC_Avg_AUC ([1]; NPC library): 280.262
- Control-VP-MCC ([1]; NPC library, therapeutic window: Control avg AUC minus VP-MCC avg AUC): 187.435
- Control-MCC ([2]; NPC library, therapeutic window: Control avg AUC minus MCC avg AUC): 97.8731
- MKL1_AUC (MKL-1 cells (VP-MCC); NPC library, qHTS dose-response AUC, MKL1): 310.311
- CRL7250_AUC (CRL-7250 cells; NPC library, qHTS dose-response AUC, CRL7250 control): 480.608
- UISO_AUC (UISO cells (VN-MCC); NPC library, qHTS dose-response AUC, UISO): 437.585
- HACAT_AUC (HACAT cells; NPC library, qHTS dose-response AUC, HACAT control): 488.14
- Control_Avg_AUC ([3]; NPC library): 467.697
- VN-MCC_Avg_AUC ([4]; NPC library): 459.387
- Control-VN-MCC ([4]; NPC library, therapeutic window: Control avg AUC minus VN-MCC avg AUC): 8.311
- MKL2_AUC (MKL-2 cells (VP-MCC); NPC library, qHTS dose-response AUC, MKL2): 282.208
- MCC_Avg_AUC ([5]; NPC library): 369.824
- NIH3T3_AUC (NIH-3T3 cells; NPC library, qHTS dose-response AUC, NIH3T3 control): 445.245
- WAGA_AUC (WAGA cells (VP-MCC); NPC library, qHTS dose-response AUC, WAGA): 248.268

Structure (SMILES): C=CC(=O)Nc1cccc(Nc2nc(NC3CCC(N(C)C)CC3)nc3c2ncn3C(C)C)c1 (stereo not drawn) [HMSL10084]
- HEK293T_AUC (HEK293T cells; [6]): 317.706
- MCC26_AUC (MCC26 cells (VN-MCC); [7]): 381.337
- MCC13_AUC (MCC13 cells (VN-MCC); [7]): 424.628
- Control-VP-MCC [1, 8]: 174.338
- VP-MCC_Avg_AUC ([1]; MIPE library, sheet S2E): 178.348
- Control-MCC [2, 9]: 83.0363
- MKL1_AUC (MKL-1 cells (VP-MCC); [7]): 144.905
- CRL7250_AUC (CRL-7250 cells; [6]): 274.567
- UISO_AUC (UISO cells (VN-MCC); [7]): 276.887
- HACAT_AUC (HACAT cells; [6]): 381.06
- Control_Avg_AUC ([3]; MIPE library, sheet S2E): 352.686
- Control-VN-MCC [4, 10]: -8.265
- VN-MCC_Avg_AUC ([4]; MIPE library, sheet S2E): 360.951
- MKL2_AUC (MKL-2 cells (VP-MCC); [7]): 208.594
- MCC_Avg_AUC ([5]; MIPE library, sheet S2E): 269.649
- NIH3T3_AUC (NIH-3T3 cells; [6]): 437.409
- WAGA_AUC (WAGA cells (VP-MCC); [7]): 181.546
